Structures are written as SMILES. ± gives the expanded uncertainty stated by the source.

For data set [1] the following is noted: 344.15 K; for mass density: Vibrating tube method; for surface tension liquid-gas: Pendant drop shape.
The conditions of data set [2]: 344.15 K, Liquid, pendant drop shape.

A word on the mass density: it is the mass of a sample divided by its volume. Regarding `O=C=O` [carbon dioxide], the mass density in data set [1] (101.33 kPa, Gas) is reported as 1.563 ± 0.032 kg/m3.
In general, surface tension liquid-gas refers to the work needed to enlarge the surface of a liquid by unit area. `CCCCCCCCCCCC` [dodecane]: the mass density in data set [1] (101.3 kPa, Liquid) was determined as 712.1 ± 0.22 kg/m3. Further, the surface tension liquid-gas in data set [1] (Liquid) turned out to be 20.72 ± 0.24 mN/m.
For the compound `CCCCCCCCCCCC` [dodecane] + O=C=O, the interfacial tension in data set [2] (100 kPa) is on record as 20.72 ± 0.02 mN/m; in data set [2] (1000 kPa) it was 18.54 ± 0.02 mN/m; in data set [2] (2000 kPa) it was 16.53 ± 0.02 mN/m; in data set [2] (3000 kPa) it was 14.74 ± 0.02 mN/m; in data set [2] (4000 kPa) it was 13.03 ± 0.02 mN/m; in data set [2] (5000 kPa), 11.31 ± 0.02 mN/m. In addition, the interfacial tension in data set [2] (6000 kPa) amounted to 9.57 ± 0.02 mN/m; in data set [2] (7000 kPa), 7.82 ± 0.02 mN/m; in data set [2] (8000 kPa), 6.12 ± 0.02 mN/m; in data set [2] (9000 kPa) it was 4.57 ± 0.02 mN/m; in data set [2] (10000 kPa), 3.24 ± 0.02 mN/m; in data set [2] (11000 kPa) it was 2.26 ± 0.02 mN/m.
As for `CCCCCCCCCCCCCC` [tetradecane], in data set [1] (101.3 kPa, Liquid), the mass density was found to be 727.1 ± 0.22 kg/m3. For the same compound, the surface tension liquid-gas in data set [1] (Liquid) amounted to 22.07 ± 0.25 mN/m.
In the case of `CCCCCCCCCCCCCC` [tetradecane] + O=C=O, the interfacial tension was found to be 22.07 ± 0.02 mN/m in data set [2] (100 kPa); 20.41 ± 0.02 mN/m in data set [2] (1000 kPa); 18.55 ± 0.02 mN/m in data set [2] (2000 kPa); 16.7 ± 0.02 mN/m in data set [2] (3000 kPa); 14.87 ± 0.02 mN/m in data set [2] (4000 kPa); 13.06 ± 0.02 mN/m in data set [2] (5000 kPa). The interfacial tension in data set [2] (6000 kPa) amounted to 11.31 ± 0.02 mN/m; in data set [2] (7000 kPa), 9.61 ± 0.02 mN/m; in data set [2] (8000 kPa) it was 8 ± 0.02 mN/m; in data set [2] (9000 kPa), 6.48 ± 0.02 mN/m; in data set [2] (10000 kPa), 5.07 ± 0.02 mN/m; in data set [2] (11000 kPa) it was 3.78 ± 0.02 mN/m. Further, the values for the interfacial tension in data set [2] (12000 kPa), in data set [2] (13000 kPa) and in data set [2] (14000 kPa) were 2.63 ± 0.02 mN/m, 1.64 ± 0.02 mN/m and 0.82 ± 0.02 mN/m, respectively.
With `CCCCCCCCCCCCC` [tridecane], the mass density in data set [1] (101.3 kPa, Liquid) is reported as 720.2 ± 0.22 kg/m3. Moreover, the surface tension liquid-gas in data set [1] (Liquid) amounted to 21.56 ± 0.24 mN/m.
Regarding `CCCCCCCCCCCCC` [tridecane] + O=C=O, the interfacial tension in data set [2] (100 kPa) came out at 21.56 ± 0.02 mN/m; in data set [2] (1000 kPa), 19.68 ± 0.02 mN/m; in data set [2] (2000 kPa), 17.65 ± 0.02 mN/m; in data set [2] (3000 kPa) it was 15.67 ± 0.02 mN/m; in data set [2] (4000 kPa), 13.77 ± 0.02 mN/m; in data set [2] (5000 kPa) it was 11.94 ± 0.02 mN/m. Further, the interfacial tension in data set [2] (6000 kPa) is on record as 10.18 ± 0.02 mN/m; in data set [2] (7000 kPa), 8.52 ± 0.02 mN/m; in data set [2] (8000 kPa), 6.95 ± 0.02 mN/m; in data set [2] (9000 kPa), 5.49 ± 0.02 mN/m; in data set [2] (10000 kPa), 4.13 ± 0.02 mN/m; in data set [2] (11000 kPa), 2.89 ± 0.02 mN/m. Moreover, the interfacial tension in data set [2] (12000 kPa) is given as 1.77 ± 0.02 mN/m; in data set [2] (13000 kPa), 0.78 ± 0.02 mN/m.

The values above are taken from the NIST ThermoML archive (doi:10.1016/j.fluid.2014.07.039).
